Entries after “also recorded” stand apart in the source; their conditions may differ.
Columns and labels:
TPH1 = molecular target: T1, TPH1 (Homo sapiens, UniProt P17752); test: Steady-state kinetic study of TPH1 inhibition; format: biochemical
T1 construct: doubly truncated human TPH1 (ΔNH102-ΔCOOH402); made in house; host or cells: E. coli BL21(DE3)
Protocol: Steady-state kinetic studies were performed to explore the mode of inhibition. […] TPH1 and TH activity assays were performed as indicated above in the absence and presence of three different compound concentrations (TPH1: 0–100 μM; TH: 0–25 μM). Product formation was measured either at a fixed concentration of the cofactor BH4 (200 μM) and varying concentrations of L-Trp (0.937–60 μM) or L-Tyr (3.125–50 μM), respectively, or in the presence of varying concentrations of BH4 (TPH1:12.5–400 μM; TH: 7.4–200 μM) and a fixed concentration of amino acid substrates: 30 μM of L-Trp or 50 μM of L-Tyr, respectively. Kinetic parameters were obtained from the Michaelis–Menten model using nonlinear regression fit [drawing 3] where Vmax is the maximum enzyme velocity and Km the Michaelis–Menten constant.
Lineweaver–Burk plots were obtained by plotting the reciprocal of the rate of the enzyme reaction (1/V) versus the reciprocal substrate concentration (1/[S]) in the absence and presence of compounds.

endogenous PAH = molecular target: T2, endogenous PAH (Homo sapiens, UniProt P00439); test: Cellular thermal shift assay (CETSA) in HepG2 cells; format: cell-based; settings: 50 μM compound, 1 h, vs DMSO
T2 construct: increased melting temperatures (ΔTm) of endogenous PAH; endogenous in cells; host or cells: HepG2
T2 sequence (P00439 1-452): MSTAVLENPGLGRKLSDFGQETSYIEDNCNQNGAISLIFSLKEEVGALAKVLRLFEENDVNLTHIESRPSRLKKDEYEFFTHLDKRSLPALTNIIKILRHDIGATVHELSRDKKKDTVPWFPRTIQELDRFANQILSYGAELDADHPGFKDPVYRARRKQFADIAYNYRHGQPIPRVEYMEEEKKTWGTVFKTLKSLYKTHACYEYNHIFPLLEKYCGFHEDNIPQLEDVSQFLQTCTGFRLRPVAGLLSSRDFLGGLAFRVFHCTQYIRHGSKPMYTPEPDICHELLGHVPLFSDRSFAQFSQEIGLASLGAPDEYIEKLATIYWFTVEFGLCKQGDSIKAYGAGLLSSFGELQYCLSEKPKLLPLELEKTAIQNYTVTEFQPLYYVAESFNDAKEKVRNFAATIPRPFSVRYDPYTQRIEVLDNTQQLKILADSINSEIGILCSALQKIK
Protocol: Then, cells were washed, harvested using trypsin, and pelleted by centrifugation. The pellet was washed twice with PBS supplemented with complete EDTA-free protease inhibitor cocktail (Roche) and divided into 14 aliquots of 35 μL containing 800,000 cells. Cells were then frozen in liquid nitrogen and thawed at 25 °C three times, and each aliquot was heated to a defined temperature by applying a gradient between 39 °C and 69 °C in a thermocycler (peQSTAR, PeQlab; 16-well gradient, 54 °C ± 15 °C). After 3 min incubation, aliquots were snap frozen in liquid nitrogen and thawed at 25 °C. Cell lysates were centrifuged at 20,000 g (4 °C) for 20 min. Supernatants were mixed with 5x loading buffer, heated to 70 °C for 5 min and analyzed by Western blotting. Chemoluminescence signals were recorded with a FusionSL, Vilber Lourmat (peQlab) and quantified using FusionCapt Advance FX7 16.01c software. Calculation of ΔTm was conducted using the Boltzmann sigmoidal model in GraphPad prism 7.01.
Cell lysates used for Western blot analysis were prepared as described in the Methods section (Cellular Thermal Shift Assay). […] Chemoluminescence signals were recorded with an FusionSL, Vilber Lourmat (peQlab) and quantified using FusionCapt Advance FX7 16.01c software.

PAH = settings: proteome profiling study; cited from earlier work
TH [1] = settings: proteome profiling study; cited from earlier work
TH [2] = molecular target: TH (Homo sapiens, UniProt P07101); test: Steady-state kinetic study of TH inhibition; format: biochemical; settings: for TH Vmax (µmol/(min*mg)): BH4 7.4 – 200 µM / L-Tyr 50 µM
Protocol: Steady-state kinetic studies were performed to explore the mode of inhibition. […] TH: 0-25 μM). […] Kinetic parameters were obtained from the Michaelis-Menten model using nonlinear regression fit [drawing 3] where Vmax is the maximum enzyme velocity and Km the Michaelis-Menten constant. Lineweaver-Burk plots were obtained by plotting the reciprocal of the rate of the enzyme reaction (1/V) versus the reciprocal substrate concentration (1/[S]) in the absence and presence of compounds.

[3] = EG22 5 μM, BH4 12.5–400 μM/L-Trp 30 μM
[4] = EG22 5 μM, L-Trp 0.937–60 μM/BH4 200 μM
[5] = EG22 30 μM, BH4 12.5–400 μM/L-Trp 30 μM
[6] = EG22 30 μM, L-Trp 0.937–60 μM/BH4 200 μM
[7] = EG22 100 μM, BH4 12.5–400 μM/L-Trp 30 μM
[8] = EG22 100 μM, L-Trp 0.937–60 μM/BH4 200 μM

T1 sequence (P17752 102-402): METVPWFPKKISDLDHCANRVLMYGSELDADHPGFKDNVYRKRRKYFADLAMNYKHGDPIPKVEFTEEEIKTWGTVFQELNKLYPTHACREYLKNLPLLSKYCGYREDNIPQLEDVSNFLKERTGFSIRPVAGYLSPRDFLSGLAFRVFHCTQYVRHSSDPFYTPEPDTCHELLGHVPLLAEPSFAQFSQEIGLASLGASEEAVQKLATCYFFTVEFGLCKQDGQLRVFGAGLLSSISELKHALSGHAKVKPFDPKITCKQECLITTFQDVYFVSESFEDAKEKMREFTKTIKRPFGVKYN
Chain of TH (Homo sapiens, UniProt P07101) (P07101 1-497 isoform P07101-3): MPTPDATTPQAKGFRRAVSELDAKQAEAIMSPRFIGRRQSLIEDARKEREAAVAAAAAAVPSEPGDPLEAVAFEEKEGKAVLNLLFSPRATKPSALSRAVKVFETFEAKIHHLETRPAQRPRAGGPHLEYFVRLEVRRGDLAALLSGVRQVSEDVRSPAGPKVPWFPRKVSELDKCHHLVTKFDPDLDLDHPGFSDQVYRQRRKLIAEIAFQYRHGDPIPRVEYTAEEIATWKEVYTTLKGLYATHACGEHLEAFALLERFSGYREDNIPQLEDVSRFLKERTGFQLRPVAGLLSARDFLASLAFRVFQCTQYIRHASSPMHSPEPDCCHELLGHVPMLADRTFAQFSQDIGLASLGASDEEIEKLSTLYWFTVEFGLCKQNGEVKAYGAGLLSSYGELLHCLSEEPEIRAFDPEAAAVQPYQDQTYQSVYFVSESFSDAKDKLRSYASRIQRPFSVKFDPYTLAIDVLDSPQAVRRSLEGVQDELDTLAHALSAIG

O=C(NO)c1ccc(Cl)c(C(=O)Nc2ccc(Cl)cc2)c1 [EG22, 4-Chloro-3-(4-chlorophenylcarbamoyl)-N-hydroxybenzamide]
mode of TPH1 inhibition, varying BH4 and fixed L-Trp (TPH1; EG22 0–100 μM): competitive inhibition; also recorded: mainly competitive | mode of TPH1 inhibition, varying L-Trp and fixed BH4 (TPH1; EG22 0–100 μM): apparent mixed/uncompetitive inhibition; also recorded: mixed noncompetitive/uncompetitive | Km (TPH1; [3]): 22.3 ± 6.8 µM | TPH1 Vmax (μmol/(min·mg)) (TPH1; [3]): 3.4 ± 0.2 µmol/min/mg | Km (TPH1; [4]): 11.7 ± 1.1 µM | TPH1 Vmax (μmol/(min·mg)) (TPH1; [4]): 4.4 ± 0.2 µmol/min/mg | Km (TPH1; [5]): 53.8 ± 11.2 µM | TPH1 Vmax (μmol/(min·mg)) (TPH1; [5]): 3.0 ± 0.2 µmol/min/mg | Km (TPH1; [6]): 7.5 ± 1.3 µM | TPH1 Vmax (μmol/(min·mg)) (TPH1; [6]): 3.0 ± 0.2 µmol/min/mg | Km (TPH1; [7]): 76.9 ± 12.5 µM | TPH1 Vmax (μmol/(min·mg)) (TPH1; [7]): 2.8 ± 0.2 µmol/min/mg | Km (TPH1; [8]): 5.5 ± 0.8 µM | TPH1 Vmax (μmol/(min·mg)) (TPH1; [8]): 2.4 ± 0.1 µmol/min/mg

Cc1[nH]c2ccccc2c1CCNCc1ccc(/C=C/C(=O)NO)cc1 [panobinostat, reference compound]
ΔTm at 50 µM (endogenous PAH): 3.7 °C | IC50 (PAH): 200 nM | IC50 (TH [1]): 3300 nM | mode of TH inhibition versus the amino acid substrate (TH [2]; panobinostat): mixed noncompetitive/uncompetitive | mode of TH inhibition toward BH4 (TH [2]; panobinostat 0–25 μM): mixed competitive/noncompetitive inhibition; also recorded: mainly competitive | TH Vmax (µmol/(min*mg)) (TH [2]; panobinostat 2.5 µM): 1.0 ± 0.1 µmol/min/mg | TH Vmax (µmol/(min*mg)) (TH [2]; panobinostat 10 µM): 0.32 ± 0.033 µmol/min/mg | TH Vmax (µmol/(min*mg)) (TH [2]; panobinostat 25 µM): 0.23 ± 0.029 µmol/min/mg
